The subject of experiment [1] is Fah−/− mice. Briefly: Compatibility between NTBC (standard of care) and GENERIDE, NTBC titration. It is filed as in vivo, mouse. The conditions noted are these: high doses of NTBC. Here is the method: Four-week-old Fah−/− animals were treated with rAAV.DJ-GR-mFAH at dosages of 1e14 vg/kg via retro-orbital sinus under anesthesia. All mice were kept on 8 mg/L of NTBC prior to the initiation of the study until 4 weeks post dosing, and then NTBC were either maintained at 8 mg/L (control) or titrated down to 3 mg/L, 0.8 mg/L, or 0.3 mg/L for 8 weeks. During the study, animals were sampled periodically by submandibular bleed and plasma was collected and stored at −80° C. until further analysis. At sacrifices, blood was collected for plasma via cardiac puncture. For liver dissection, one lobe of liver was fixed by 10% formalin, and the remaining was snap-frozen and stored at −80° C. Next day, formalin-fixed liver was transferred to 70% ethanol for paraffin embedding.
Viral vectors comprising an AAV-DJ viral capsid, mouse FAH (mFAH) transgene, P2A sequence, and flanking 5′ homology arm 1000 nucleotides (nt) in length and a 3′ homology arm 1600 nt in length homology arms were constructed. Homology arms were designed for complementarity to a mouse genomic albumin target integration site. Viral vectors herein described were administered at a dosage of 1e14 vg/kg to […] groups (Groups 1, 2, 3, 4) of Fah−/− mice via intravenous injection at 4 weeks of age. […] Mice were assessed for circulating biomarkers (e.g., levels of ALB-2A) for up to 6 weeks post-NTBC titration (FIG. 4B).

For the next experiment, the system named is HT1 patients. The conditions noted are these: cited from earlier work.
In experiment [2] the test system is Fah−/− mice. Briefly: Disease progression and resolution with and without NTBC (NTBC cycling). It is filed as in vivo, mouse. Here is the method:
Fah−/− mice were kept on 8 mg/L of NTBC-drinking water prior to the initiation of the study at 7 weeks of age. Animals were then supplied with regular water (NTBC off) for 7 days, followed by NTBC-containing water at 8 mg/L for another 7 days. The above cycling was repeated for another 14 days. During the study, animals were monitored for daily body weight. Submandibular blood and urine were sampled periodically, and serum and plasma were collected and stored at −80° C. until further analysis. At sacrifice, blood was collected for plasma via cardiac puncture. For liver dissection, one lobe of liver was fixed by 10% formalin, and the remaining was snap-frozen and stored at −80° C. The following day, the formalin-fixed liver was transferred to 70% ethanol for paraffin embedding.

Consider `O=C1CCCC(=O)C1C(=O)c1ccc(C(F)(F)F)cc1[N+](=O)[O-]` [NTBC, 2-(2-nitro-4-trifluoromethylbenzoyl)-1,3cyclohexanedione], for which the “effect on selective expansion of GENERIDE edited cells (hepatocytes)” value with Fah−/− mice [1] is listed as “prevent selective expansion”. For the same compound, the “risk of developing HCC, NTBC started after the neonatal period compared to patients treated as neonates” value in the experiment with HT1 patients is on record as 2-12 fold. In the experiment on Fah−/− mice [2] (NTBC 8 mg/L drinking water), the “time to restore levels of disease biomarkers (SUAC) and liver synthetic function (aPTT, ALT, blood glucose)” value is “less than 7 days”. Besides, the “time to abnormal levels of disease biomarkers (SUAC) and liver synthetic function upon withdrawal” value in the experiment with Fah−/− mice [2] (NTBC withdrawal) is reported as “less than 3 days”.
